In PubChem BioAssay AID2060331 (Molecular Pharmacology Branch, DTP, NCI, 2025):
pIC50: −log10 of the molar value.

System: Hs578T multi-cell spheroids, viability
Experiment: Anticancer human tumor Hs578T cell line growth inhibition [IpAb];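 further: drug exposure lasted 7 days before readout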
Details: for pIC50: curve of first compound; for viability, T/C: stronger effect = lower value
Summary of the method: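 Spheroids of 60% malignant cells, 25% HUVEC and 15% MSC were exposed to targeted agents combined with ipatasertib or abemaciclib. Doses started at or near clinical Cmax (10 microM when unknown) and fell in half-log steps.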

[1] = second compound 0.1 µM, first compound 0.0316 µM
[2] = second compound 0.1 µM, first compound 0.1 µM
[3] = second compound 0.1 µM, first compound 0.316 µM
[4] = second compound 0.1 µM, first compound 1 µM
[5] = second compound 0.1 µM, first compound 3.16 µM
[6] = second compound 0.1 µM, first compound 10 µM
[7] = second compound 0.316 µM, first compound 0.0316 µM
[8] = second compound 0.316 µM, first compound 0.1 µM
[9] = second compound 0.316 µM, first compound 0.316 µM
[10] = second compound 0.316 µM, first compound 1 µM
[11] = second compound 0.316 µM, first compound 3.16 µM
[12] = second compound 0.316 µM, first compound 10 µM
[13] = second compound 1 µM, first compound 0.0316 µM
[14] = second compound 1 µM, first compound 0.1 µM
[15] = second compound 1 µM, first compound 0.316 µM
[16] = second compound 1 µM, first compound 1 µM
[17] = second compound 1 µM, first compound 3.16 µM
[18] = second compound 1 µM, first compound 10 µM
[19] = second compound 3.16 µM, first compound 0.0316 µM
[20] = second compound 3.16 µM, first compound 0.1 µM
[21] = second compound 3.16 µM, first compound 0.316 µM
[22] = second compound 3.16 µM, first compound 1 µM
[23] = second compound 3.16 µM, first compound 3.16 µM
[24] = second compound 3.16 µM, first compound 10 µM
[25] = second compound 10 µM, first compound 0.0316 µM
[26] = second compound 10 µM, first compound 0.1 µM
[27] = second compound 10 µM, first compound 0.316 µM
[28] = second compound 10 µM, first compound 1 µM
[29] = second compound 10 µM, first compound 3.16 µM
[30] = second compound 10 µM, first compound 10 µM

## C=CC(=O)N1CCN(c2nc(=O)n(-c3c(C)ccnc3C(C)C)c3nc(-c4c(O)cccc4F)c(F)cc23)C(C)C1 (stereo not given) + CC(C)NCC(C(=O)N1CCN(c2ncnc3c2C(C)CC3O)CC1)c1ccc(Cl)cc1
Second compound 0.1 µM
  pIC50: < 5.00
Second compound 0.316 µM
  pIC50: < 5.00
Second compound 1 µM
  pIC50: < 5.00
Second compound 3.16 µM
  pIC50: 5.40
Second compound 10 µM
  pIC50: > 7.50
[1]
  viability, T/C: 94.2%
[2]
  viability, T/C: 103%
[3]
  viability, T/C: 102%
[4]
  viability, T/C: 112%
[5]
  viability, T/C: 94.4%
[6]
  viability, T/C: 72%
[7]
  viability, T/C: 83.7%
[8]
  viability, T/C: 90.6%
[9]
  viability, T/C: 90.1%
[10]
  viability, T/C: 89.5%
[11]
  viability, T/C: 84%
[12]
  viability, T/C: 65.5%
[13]
  viability, T/C: 70.8%
[14]
  viability, T/C: 70.9%
[15]
  viability, T/C: 69.3%
[16]
  viability, T/C: 75.1%
[17]
  viability, T/C: 66.2%
[18]
  viability, T/C: 55.1%
[19]
  viability, T/C: 56.7%
[20]
  viability, T/C: 59.6%
[21]
  viability, T/C: 55.1%
[22]
  viability, T/C: 54.5%
[23]
  viability, T/C: 52.8%
[24]
  viability, T/C: 41.9%
[25]
  viability, T/C: 45.1%
[26]
  viability, T/C: 50.4%
[27]
  viability, T/C: 46.9%
[28]
  viability, T/C: 49.1%
[29]
  viability, T/C: 46.5%
[30]
  viability, T/C: 20.4%

## CC(C)(C)c1cnc(CSc2cnc(NC(=O)C3CCNCC3)s2)o1 + CC(C)NCC(C(=O)N1CCN(c2ncnc3c2C(C)CC3O)CC1)c1ccc(Cl)cc1
Second compound 0.1 µM
  pIC50: 6.74
Second compound 0.316 µM
  pIC50: 6.76
Second compound 1 µM
  pIC50: 6.81
Second compound 3.16 µM
  pIC50: 6.97
Second compound 10 µM
  pIC50: 7.48
Second compound 0.1 µM, first compound 0.00949 µM
  viability, T/C: 104%
Second compound 0.1 µM, first compound 0.03 µM
  viability, T/C: 114%
Second compound 0.1 µM, first compound 0.0949 µM
  viability, T/C: 109%
Second compound 0.1 µM, first compound 0.3 µM
  viability, T/C: 2.64%
Second compound 0.1 µM, first compound 0.949 µM
  viability, T/C: 2.52%
Second compound 0.1 µM, first compound 3 µM
  viability, T/C: 3.3%
Second compound 0.316 µM, first compound 0.00949 µM
  viability, T/C: 93.5%
Second compound 0.316 µM, first compound 0.03 µM
  viability, T/C: 104%
Second compound 0.316 µM, first compound 0.0949 µM
  viability, T/C: 107%
Second compound 0.316 µM, first compound 0.3 µM
  viability, T/C: 2.26%
Second compound 0.316 µM, first compound 0.949 µM
  viability, T/C: 2.29%
Second compound 0.316 µM, first compound 3 µM
  viability, T/C: 2.23%
Second compound 1 µM, first compound 0.00949 µM
  viability, T/C: 80.7%
Second compound 1 µM, first compound 0.03 µM
  viability, T/C: 88.7%
Second compound 1 µM, first compound 0.0949 µM
  viability, T/C: 89.5%
Second compound 1 µM, first compound 0.3 µM
  viability, T/C: 2.31%
Second compound 1 µM, first compound 0.949 µM
  viability, T/C: 2.45%
Second compound 1 µM, first compound 3 µM
  viability, T/C: 2.32%
Second compound 3.16 µM, first compound 0.00949 µM
  viability, T/C: 60.5%
Second compound 3.16 µM, first compound 0.03 µM
  viability, T/C: 69.6%
Second compound 3.16 µM, first compound 0.0949 µM
  viability, T/C: 56.1%
Second compound 3.16 µM, first compound 0.3 µM
  viability, T/C: 2.25%
Second compound 3.16 µM, first compound 0.949 µM
  viability, T/C: 3.36%
Second compound 3.16 µM, first compound 3 µM
  viability, T/C: 3.32%
Second compound 10 µM, first compound 0.00949 µM
  viability, T/C: 49.3%
Second compound 10 µM, first compound 0.03 µM
  viability, T/C: 57.7%
Second compound 10 µM, first compound 0.0949 µM
  viability, T/C: 14.8%
Second compound 10 µM, first compound 0.3 µM
  viability, T/C: 1.74%
Second compound 10 µM, first compound 0.949 µM
  viability, T/C: 2.09%
Second compound 10 µM, first compound 3 µM
  viability, T/C: 2.94%

## Cn1ncc(Cl)c1-c1cc(C(=O)NC(CN)Cc2cccc(F)c2)sc1Cl (stereo not given) + CC(C)NCC(C(=O)N1CCN(c2ncnc3c2C(C)CC3O)CC1)c1ccc(Cl)cc1
Second compound 0.1 µM
  pIC50: 5.77
Second compound 0.316 µM
  pIC50: 5.68
Second compound 1 µM
  pIC50: 5.95
Second compound 3.16 µM
  pIC50: 6.02
Second compound 10 µM
  pIC50: 7.50
[1]
  viability, T/C: 90.9%
[2]
  viability, T/C: 83.2%
[3]
  viability, T/C: 70%
[4]
  viability, T/C: 56.5%
[5]
  viability, T/C: 44.5%
[6]
  viability, T/C: 0.16%
[7]
  viability, T/C: 51.9%
[8]
  viability, T/C: 73.5%
[9]
  viability, T/C: 67.1%
[10]
  viability, T/C: 54.5%
[11]
  viability, T/C: 45.9%
[12]
  viability, T/C: 0.16%
[13]
  viability, T/C: 67.3%
[14]
  viability, T/C: 62.1%
[15]
  viability, T/C: 50.1%
[16]
  viability, T/C: 51.6%
[17]
  viability, T/C: 39.4%
[18]
  viability, T/C: 0.15%
[19]
  viability, T/C: 53.2%
[20]
  viability, T/C: 53.7%
[21]
  viability, T/C: 49%
[22]
  viability, T/C: 48.6%
[23]
  viability, T/C: 41.5%
[24]
  viability, T/C: 0.16%
[25]
  viability, T/C: 42.7%
[26]
  viability, T/C: 47.3%
[27]
  viability, T/C: 43.9%
[28]
  viability, T/C: 52.2%
[29]
  viability, T/C: 28.6%
[30]
  viability, T/C: 0.24%

## Cn1nccc1Nc1nccc(-c2ccn(C(CO)c3ccc(Cl)c(F)c3)c(=O)c2)n1 (stereo not given) + CC(C)NCC(C(=O)N1CCN(c2ncnc3c2C(C)CC3O)CC1)c1ccc(Cl)cc1
Second compound 0.1 µM
  pIC50: 5.34
Second compound 0.316 µM
  pIC50: 5.58
Second compound 1 µM
  pIC50: 5.82
Second compound 3.16 µM
  pIC50: 6.20
Second compound 10 µM
  pIC50: 6.86
[1]
  viability, T/C: 106%
[2]
  viability, T/C: 109%
[3]
  viability, T/C: 111%
[4]
  viability, T/C: 76.8%
[5]
  viability, T/C: 59.4%
[6]
  viability, T/C: 37.9%
[7]
  viability, T/C: 91.5%
[8]
  viability, T/C: 90.5%
[9]
  viability, T/C: 94.3%
[10]
  viability, T/C: 60.9%
[11]
  viability, T/C: 50.9%
[12]
  viability, T/C: 23.6%
[13]
  viability, T/C: 65.8%
[14]
  viability, T/C: 73.5%
[15]
  viability, T/C: 77.7%
[16]
  viability, T/C: 54.3%
[17]
  viability, T/C: 36.2%
[18]
  viability, T/C: 14.1%
[19]
  viability, T/C: 62.2%
[20]
  viability, T/C: 61.6%
[21]
  viability, T/C: 61.7%
[22]
  viability, T/C: 42.4%
[23]
  viability, T/C: 16.3%
[24]
  viability, T/C: 2.55%
[25]
  viability, T/C: 48.1%
[26]
  viability, T/C: 55.6%
[27]
  viability, T/C: 45.6%
[28]
  viability, T/C: 31.1%
[29]
  viability, T/C: 3.87%
[30]
  viability, T/C: 0.64%

## Cn1ncnc1[C@H]1c2n[nH]c(=O)c3cc(F)cc(c23)N[C@@H]1c1ccc(F)cc1 + CC(C)NCC(C(=O)N1CCN(c2ncnc3c2C(C)CC3O)CC1)c1ccc(Cl)cc1
Second compound 0.1 µM
  pIC50: < 7.00
Second compound 0.316 µM
  pIC50: < 7.00
Second compound 1 µM
  pIC50: < 7.00
Second compound 3.16 µM
  pIC50: 9.26
Second compound 10 µM
  pIC50: > 9.50
Second compound 0.1 µM, first compound 0.000316 µM
  viability, T/C: 97.6%
Second compound 0.1 µM, first compound 0.001 µM
  viability, T/C: 95.3%
Second compound 0.1 µM, first compound 0.00316 µM
  viability, T/C: 87.9%
Second compound 0.1 µM, first compound 0.01 µM
  viability, T/C: 88.2%
[1]
  viability, T/C: 82.8%
[2]
  viability, T/C: 82.3%
Second compound 0.316 µM, first compound 0.000316 µM
  viability, T/C: 80.7%
Second compound 0.316 µM, first compound 0.001 µM
  viability, T/C: 79.5%
Second compound 0.316 µM, first compound 0.00316 µM
  viability, T/C: 79.9%
Second compound 0.316 µM, first compound 0.01 µM
  viability, T/C: 71.7%
[7]
  viability, T/C: 75.5%
[8]
  viability, T/C: 65.9%
Second compound 1 µM, first compound 0.000316 µM
  viability, T/C: 66.1%
Second compound 1 µM, first compound 0.001 µM
  viability, T/C: 61.3%
Second compound 1 µM, first compound 0.00316 µM
  viability, T/C: 62.6%
Second compound 1 µM, first compound 0.01 µM
  viability, T/C: 60%
[13]
  viability, T/C: 58.6%
[14]
  viability, T/C: 55.1%
Second compound 3.16 µM, first compound 0.000316 µM
  viability, T/C: 49.7%
Second compound 3.16 µM, first compound 0.001 µM
  viability, T/C: 49.4%
Second compound 3.16 µM, first compound 0.00316 µM
  viability, T/C: 50.5%
Second compound 3.16 µM, first compound 0.01 µM
  viability, T/C: 48.3%
[19]
  viability, T/C: 44.9%
[20]
  viability, T/C: 42.3%
Second compound 10 µM, first compound 0.000316 µM
  viability, T/C: 46.1%
Second compound 10 µM, first compound 0.001 µM
  viability, T/C: 42.9%
Second compound 10 µM, first compound 0.00316 µM
  viability, T/C: 44.9%
Second compound 10 µM, first compound 0.01 µM
  viability, T/C: 40.6%
[25]
  viability, T/C: 43.3%
[26]
  viability, T/C: 38.6%
